From US20130089624A1, “Compounds Useful as Inhibitors of ATR Kinase” (VERTEX PHARMACEUTICALS INCORPORATED, priority 2011, published 2013)

What was measured:
[1] = system: HCT116 colorectal cancer cells; test: Single Agent HCT116 Activity, 96 h cell viability (MTS) assay; type: cell-based; details: Homo sapiens, HCT-116, 96 h MTS, read-out: Single agent HT116 IC50
Description: Compounds can be screened for single agent activity against HCT116 colorectal cancer cells using a 96 h cell viability (MTS) assay. HCT116 are plated at 470 cells per well in 96-well polystyrene plates (Costar 3596) in 150 μl of McCoy's 5A media (Sigma M8403) supplemented with 10% foetal bovine serum (JRH Biosciences 12003), Penicillin/Streptomycin solution diluted 1:100 (Sigma P7539), and 2 mM L-glumtamine (Sigma G7513), and allowed to adhere overnight at 37° C. in 5% CO2. Compounds are then added to the cell media in 2-fold serial dilutions from a top final concentration of 10 μM as a full matrix of concentrations in a final cell volume of 200 μl, and the cells are then incubated at 37° C. in 5% CO2. After 96 h, 40 μl of MTS reagent (Promega G358a) is added to each well and the cells are incubated for 1 h at 37° C. in 5% CO2. Finally, absorbance is measured at 490 nm using a SpectraMax Plus 384 reader (Molecular Devices) and IC50 values can be calculated.

[2] = target: intracellular ATR (Homo sapiens (Human), UniProt Q13535); test: Cellular ATR Inhibition Assay (phosphorylation of histone H2AX in hydroxyurea treated HT29 cells); type: cell-based; details: phosphorylated H2AX Ser139 in HT29 cells, 2 mM hydroxyurea; read-out: ATR biomarker IC50
Description: Compounds can be screened for their ability to inhibit intracellular ATR using an immunofluorescence microscopy assay to detect phosphorylation of the ATR substrate histone H2AX in hydroxyurea treated cells. HT29 cells are plated at 14,000 cells per well in 96-well black imaging plates (BD 353219) in McCoy's 5A media (Sigma M8403) supplemented with 10% foetal bovine serum (JRH Biosciences 12003), Penicillin/Streptomycin solution diluted 1:100 (Sigma P7539), and 2 mM L-glumtamine (Sigma G7513), and allowed to adhere overnight at 37° C. in 5% CO2. Compounds are then added to the cell media from a final concentration of 25 μM in 3-fold serial dilutions and the cells are incubated at 37° C. in 5% CO2. […]
Cells are imaged for Alexa Fluor 488 and Hoechst intensity using the BD Pathway 855 Bioimager and Attovision software (BD Biosciences, Version 1.6/855) to quantify phosphorylated H2AX Ser139 and DNA staining, respectively. The percentage of phosphorylated H2AX-positive nuclei in a montage of 9 images at 20× magnification is then calculated for each well using BD Image Data Explorer software (BD Biosciences Version 2.2.15). […] The percentage of H2AX positive nuclei is finally plotted against concentration for each compound and IC50s for intracellular ATR inhibition are determined using Prism software (GraphPad Prism version 3.0cx for Macintosh, GraphPad Software, San Diego Calif., USA).

[3] = Pharmacokinetics, noncompartmental parameters following intravenous (IV) dosing; details: in vivo
Description: Noncompartmental pharmacokinetic parameters were analyzed using Watson Bioanalytical LIMS (Version 7.4; Thermo Fisher Scientific) from either the blood or plasma samples. The following parameters were estimated following intravenous (IV) dosing; terminal elimination half-life (T1/2=ln(2)/λz, where λz is the first order rate constant associated with the terminal (log-linear) portion of the curve.
The area under the curve (AUClast=area under the curve from the time of dosing to the last measurable concentration). The area under the curve extrapolated to infinity (AUC0-∞=AUClast+Clast/λz). The clearance (Cl; Cl=DoseIV/AUC0-∞). The area under the first moment curve (AUMClast=area under the concentration times time versus time curve from the time of dosing to the last measurable concentration). The area under the first moment curve extrapolated to infinity (AUMC0-∞=AUMClast+Clast×t/λz+Clast/λz^2). The mean residence time (MRT=AUMC0-∞/AUC0-∞) and the steady state volume of distribution (Vdss=MRT×Cl).
Clearance and volume of distribution can also be obtained using methods known to one of skill in the art (see e.g., Handbook of Essential Pharmacokinetics, Pharmacodynamics and Drug Metabolism for Industrial Scientists, Younggil Kwon, pp 18-28 (Non-compartmental Approach)).

[4] = target: full-length ATR (Homo sapiens (Human), UniProt Q13535); test: ATR Inhibition Assay (radioactive-phosphate incorporation); type: biochemical; details: Ki(app); 5 nM full-length ATR, 10 μM ATP, 25° C.
Description: Compounds were screened for their ability to inhibit ATR kinase using a radioactive-phosphate incorporation assay. Assays were carried out in a mixture of 50 mM Tris/HCl (pH 7.5), 10 mM MgCl2 and 1 mM DTT. Final substrate concentrations were 10 μM [γ-33P]ATP (3mCi 33P ATP/mmol ATP, Perkin Elmer) and 800 μM target peptide (ASELPASQPQPFSAKKK).
Assays were carried out at 25° C. in the presence of 5 nM full-length ATR. An assay stock buffer solution was prepared containing all of the reagents listed above, with the exception of ATP and the test compound of interest. 13.5 μL of the stock solution was placed in a 96 well plate followed by addition of 2 μL of DMSO stock containing serial dilutions of the test compound (typically starting from a final concentration of 15 μM with 3-fold serial dilutions) in duplicate (final DMSO concentration 7%). The plate was pre-incubated for 10 minutes at 25° C. and the reaction initiated by addition of 15 μL [γ-33P]ATP (final concentration 10 μM).
The reaction was stopped after […] by the addition of 30 μL 0.1M phosphoric acid containing 2 mM ATP. […]
After removing mean background values for all of the data points, Ki(app) data were calculated from non-linear regression analysis of the initial rate data using the Prism software package (GraphPad Prism version 3.0cx for Macintosh, GraphPad Software, San Diego Calif., USA).

[5] = system: HCT116 colorectal cancer cells; test: Cisplatin Sensitization Assay, 96 h cell viability (MTS) assay; type: cell-based; details: concentration of compound required to reduce the IC50 of Cisplatin alone by at least 3-fold; HCT116, 96 h MTS
Description: Compounds can be screened for their ability to sensitize HCT116 colorectal cancer cells to Cisplatin using a 96 h cell viability (MTS) assay. […] Compounds and Cisplatin are then both added simultaneously to the cell media in 2-fold serial dilutions from a top final concentration of 10 μM as a full matrix of concentrations in a final cell volume of 200 μl, and the cells are then incubated at 37° C. in 5% CO2. After 96 h, 40 μl of MTS reagent (Promega G358a) is added to each well and the cells are incubated for 1 h at 37° C. in 5% CO2. Finally, absorbance is measured at 490 nm using a SpectraMax Plus 384 reader (Molecular Devices) and the concentration of compound required to reduce the IC50 of Cisplatin alone by at least 3-fold (to 1 decimal place) can be reported.

Sequence of intracellular ATR (Q13535 whole entry): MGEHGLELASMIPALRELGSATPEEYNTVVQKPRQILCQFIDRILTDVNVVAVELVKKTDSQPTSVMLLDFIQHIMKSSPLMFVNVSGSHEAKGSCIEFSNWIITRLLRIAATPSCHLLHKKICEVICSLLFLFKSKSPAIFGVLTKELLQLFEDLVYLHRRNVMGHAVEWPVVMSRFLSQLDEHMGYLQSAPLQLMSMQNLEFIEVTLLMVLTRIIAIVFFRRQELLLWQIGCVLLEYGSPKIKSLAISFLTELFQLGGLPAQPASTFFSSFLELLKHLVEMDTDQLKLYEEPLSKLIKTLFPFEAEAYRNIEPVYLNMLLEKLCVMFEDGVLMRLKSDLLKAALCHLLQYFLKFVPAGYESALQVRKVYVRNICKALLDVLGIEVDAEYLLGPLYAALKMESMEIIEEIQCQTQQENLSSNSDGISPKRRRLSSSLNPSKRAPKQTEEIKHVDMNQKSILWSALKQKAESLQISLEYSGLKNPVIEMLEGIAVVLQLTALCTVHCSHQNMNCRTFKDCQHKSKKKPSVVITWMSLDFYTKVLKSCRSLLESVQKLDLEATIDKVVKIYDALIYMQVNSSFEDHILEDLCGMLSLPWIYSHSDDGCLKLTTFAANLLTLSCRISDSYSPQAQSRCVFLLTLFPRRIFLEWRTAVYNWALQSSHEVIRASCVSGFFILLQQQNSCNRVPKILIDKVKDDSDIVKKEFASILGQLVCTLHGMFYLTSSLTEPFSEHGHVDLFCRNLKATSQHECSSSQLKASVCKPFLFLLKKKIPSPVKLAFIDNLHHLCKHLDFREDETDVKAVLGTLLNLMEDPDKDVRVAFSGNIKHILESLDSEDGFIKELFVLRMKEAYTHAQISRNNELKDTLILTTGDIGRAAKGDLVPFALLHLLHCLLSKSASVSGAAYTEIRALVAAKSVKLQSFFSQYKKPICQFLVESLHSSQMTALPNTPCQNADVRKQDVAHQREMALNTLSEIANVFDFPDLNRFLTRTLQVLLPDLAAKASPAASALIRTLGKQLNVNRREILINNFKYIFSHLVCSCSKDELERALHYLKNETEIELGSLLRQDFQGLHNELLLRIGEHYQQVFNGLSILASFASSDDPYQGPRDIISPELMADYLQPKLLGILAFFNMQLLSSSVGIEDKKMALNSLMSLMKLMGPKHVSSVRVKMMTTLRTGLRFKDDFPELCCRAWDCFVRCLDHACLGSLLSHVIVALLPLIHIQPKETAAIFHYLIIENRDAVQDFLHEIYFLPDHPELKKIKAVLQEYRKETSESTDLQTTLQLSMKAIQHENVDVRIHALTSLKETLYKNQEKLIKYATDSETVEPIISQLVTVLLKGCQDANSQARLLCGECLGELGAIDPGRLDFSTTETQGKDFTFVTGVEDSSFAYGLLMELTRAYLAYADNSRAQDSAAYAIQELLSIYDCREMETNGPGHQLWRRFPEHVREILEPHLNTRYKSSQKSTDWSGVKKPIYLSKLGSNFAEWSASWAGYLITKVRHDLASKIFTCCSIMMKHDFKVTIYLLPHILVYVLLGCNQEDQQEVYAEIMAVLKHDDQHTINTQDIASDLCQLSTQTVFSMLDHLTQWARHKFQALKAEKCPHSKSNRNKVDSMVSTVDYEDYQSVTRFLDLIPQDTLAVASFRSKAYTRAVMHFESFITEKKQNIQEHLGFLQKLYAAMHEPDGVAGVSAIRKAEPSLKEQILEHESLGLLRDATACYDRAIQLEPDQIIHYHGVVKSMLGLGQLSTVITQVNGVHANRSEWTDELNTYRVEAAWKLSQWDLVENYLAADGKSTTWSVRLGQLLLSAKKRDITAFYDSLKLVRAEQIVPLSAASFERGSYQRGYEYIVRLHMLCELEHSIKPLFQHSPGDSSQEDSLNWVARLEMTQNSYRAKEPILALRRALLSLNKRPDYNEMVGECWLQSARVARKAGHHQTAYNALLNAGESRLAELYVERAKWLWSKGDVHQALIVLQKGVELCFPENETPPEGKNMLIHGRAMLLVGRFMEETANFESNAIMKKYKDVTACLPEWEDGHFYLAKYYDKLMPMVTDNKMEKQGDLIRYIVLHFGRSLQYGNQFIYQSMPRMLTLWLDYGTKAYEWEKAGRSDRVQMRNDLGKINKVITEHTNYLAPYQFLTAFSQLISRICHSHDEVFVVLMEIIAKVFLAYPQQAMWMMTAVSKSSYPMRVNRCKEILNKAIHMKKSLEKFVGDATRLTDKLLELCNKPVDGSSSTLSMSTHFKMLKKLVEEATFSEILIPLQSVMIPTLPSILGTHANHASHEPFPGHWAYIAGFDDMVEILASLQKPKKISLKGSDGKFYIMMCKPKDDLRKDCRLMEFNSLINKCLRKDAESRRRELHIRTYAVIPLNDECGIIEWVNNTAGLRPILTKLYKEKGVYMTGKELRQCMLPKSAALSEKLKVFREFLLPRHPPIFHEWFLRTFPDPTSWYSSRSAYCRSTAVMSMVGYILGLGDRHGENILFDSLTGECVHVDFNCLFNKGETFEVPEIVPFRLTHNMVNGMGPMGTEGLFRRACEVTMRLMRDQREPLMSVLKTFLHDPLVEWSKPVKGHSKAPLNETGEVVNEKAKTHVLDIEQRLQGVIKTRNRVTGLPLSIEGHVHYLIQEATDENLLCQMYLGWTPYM
Sequence of intracellular ATR (Q8WXE1 whole entry partner): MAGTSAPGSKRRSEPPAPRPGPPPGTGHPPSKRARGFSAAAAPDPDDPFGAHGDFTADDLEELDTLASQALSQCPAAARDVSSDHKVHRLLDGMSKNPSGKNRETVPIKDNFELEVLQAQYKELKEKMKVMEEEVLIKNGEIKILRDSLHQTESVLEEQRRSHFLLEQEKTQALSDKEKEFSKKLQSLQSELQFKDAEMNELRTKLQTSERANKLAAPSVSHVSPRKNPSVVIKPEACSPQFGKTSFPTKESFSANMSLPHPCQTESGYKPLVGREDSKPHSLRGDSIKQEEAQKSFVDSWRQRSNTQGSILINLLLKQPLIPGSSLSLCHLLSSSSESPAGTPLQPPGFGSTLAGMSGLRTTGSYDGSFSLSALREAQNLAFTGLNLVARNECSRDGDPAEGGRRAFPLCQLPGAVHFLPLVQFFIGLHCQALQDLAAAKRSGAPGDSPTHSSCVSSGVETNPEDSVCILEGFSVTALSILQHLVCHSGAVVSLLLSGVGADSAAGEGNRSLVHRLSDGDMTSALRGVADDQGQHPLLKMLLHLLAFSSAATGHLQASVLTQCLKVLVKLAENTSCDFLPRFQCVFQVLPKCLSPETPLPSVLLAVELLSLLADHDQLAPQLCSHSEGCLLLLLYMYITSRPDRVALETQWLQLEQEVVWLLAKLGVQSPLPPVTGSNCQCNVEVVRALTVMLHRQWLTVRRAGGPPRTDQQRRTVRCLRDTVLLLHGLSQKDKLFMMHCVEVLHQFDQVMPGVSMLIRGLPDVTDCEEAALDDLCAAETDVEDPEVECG
Sequence of full-length ATR (Q13535 whole entry): as the sequence (Q13535 whole entry) above

Question: With `CC(C)S(=O)(=O)c1ccc(-c2cnc(N)c(-c3cc(-c4ccc([C@@H]5COCCN5)cc4)no3)n2)cc1` [I, 5-(4-isopropylsulfonylphenyl)-3-[3-[4-[(3R)-morpholin-3-yl]phenyl]isoxazol-5-yl]pyrazin-2-amine] as the compound, how does the IC50 [1] read?
Answer: 0.365 µM

Question: And the IC50 [2]?
Answer: 0.2 µM

Question: What about the clearance ([3]; blood or plasma samples) of the same compound?
Answer: 3.5 mL/min/kg

Question: And the Vd ([3]; steady state volume of distribution, read-out: VSS)?
Answer: 1.1 L/kg

Question: And the Ki [4]?
Answer: 0.000503 µM

Question: And the Cisplatin sensitization [5]?
Answer: 117 nM
